This is an account of results in ChEMBL document CHEMBL1140477 (Bioorg Med Chem, 2007).

This assay deals with T1, 3-hydroxy-3-methylglutaryl-coenzyme A reductase (Rattus norvegicus, UniProt P51639).
T1 sequence (P51639 whole entry): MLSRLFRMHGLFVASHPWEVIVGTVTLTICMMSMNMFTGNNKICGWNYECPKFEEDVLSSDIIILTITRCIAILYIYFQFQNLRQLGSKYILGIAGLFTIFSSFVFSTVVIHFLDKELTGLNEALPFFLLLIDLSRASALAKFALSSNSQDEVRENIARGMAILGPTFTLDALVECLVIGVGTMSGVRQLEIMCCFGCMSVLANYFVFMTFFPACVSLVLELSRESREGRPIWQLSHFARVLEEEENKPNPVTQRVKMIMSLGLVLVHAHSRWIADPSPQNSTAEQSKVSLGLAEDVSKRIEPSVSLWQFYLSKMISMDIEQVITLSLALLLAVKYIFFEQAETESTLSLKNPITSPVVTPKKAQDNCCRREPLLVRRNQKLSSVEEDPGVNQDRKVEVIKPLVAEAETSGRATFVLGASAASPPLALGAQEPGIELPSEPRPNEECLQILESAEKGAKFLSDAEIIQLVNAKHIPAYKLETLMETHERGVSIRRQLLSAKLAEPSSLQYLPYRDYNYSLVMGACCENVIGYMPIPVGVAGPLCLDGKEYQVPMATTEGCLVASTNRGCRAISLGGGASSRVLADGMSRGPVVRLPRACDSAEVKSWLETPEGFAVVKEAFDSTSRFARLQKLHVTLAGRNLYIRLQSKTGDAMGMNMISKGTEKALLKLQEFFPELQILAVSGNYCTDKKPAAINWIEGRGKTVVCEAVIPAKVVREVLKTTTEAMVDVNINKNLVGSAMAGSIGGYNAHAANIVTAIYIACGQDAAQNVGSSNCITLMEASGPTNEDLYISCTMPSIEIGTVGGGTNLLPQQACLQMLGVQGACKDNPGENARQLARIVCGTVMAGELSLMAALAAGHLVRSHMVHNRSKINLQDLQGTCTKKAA
The assay can be described thus: Inhibition of Holtzman-Sprague-Dawley rat liver HMG CoA reductase after 30 mins.

Regarding `COc1cccc(Sc2c(F)cc3c(Sc4cccc(OC)c4)c(/C=C/[C@@H]4C[C@@H](O)CC(=O)O4)cnc3c2F)c1`, the concentration for half-maximal inhibition (IC50) (usually the midpoint of a concentration-inhibition curve) amounted to 49.7 µM. This lies in the double-digit micromolar range.
Molecule `O=C1C[C@H](O)C[C@@H](/C=C/c2cnc3c(F)c(F)c(F)cc3c2Sc2ccccc2)O1` had an IC50 of 10.7 µM.
Next, `CC(C)c1ccc(Sc2cc3ncc(/C=C/[C@@H]4C[C@@H](O)CC(=O)O4)c(Sc4ccc(C(C)C)cc4)c3cc2Sc2ccc(C(C)C)cc2)cc1`: 14.2 µM; `O=C1C[C@H](O)C[C@@H](/C=C/c2cnc3cc(Sc4ccccc4)c(F)cc3c2Sc2ccccc2)O1`: 4.41 µM.
Regarding `CC(C)c1ccc(Sc2ccc3c(Sc4ccc(C(C)C)cc4)c(/C=C/[C@@H]4C[C@@H](O)CC(=O)O4)cnc3c2)cc1`, the half-inhibitory concentration (IC50) was found to be 15.8 µM.
Next, `O=C1C[C@H](O)C[C@@H](/C=C/c2cnc3cc(Sc4ccccc4)c(Sc4ccccc4)cc3c2Sc2ccccc2)O1`: 32.5 µM.
Next, `CC(C)c1ccc(Sc2c(/C=C/[C@@H]3C[C@@H](O)CC(=O)O3)cnc3cc(Cl)c(F)cc23)cc1`: 22.1 µM.
For the molecule `COc1cccc(Sc2cc3ncc(/C=C/[C@@H]4C[C@@H](O)CC(=O)O4)c(Sc4cccc(OC)c4)c3cc2Sc2cccc(OC)c2)c1`, the IC50 was 15.4 µM.
With `O=C1C[C@H](O)C[C@@H](/C=C/c2cnc3cc(Sc4ccc(F)cc4)c(F)cc3c2Sc2ccc(F)cc2)O1`, the concentration for half-maximal inhibition (IC50) worked out at 38.9 µM.
Consider `O=C(O)C[C@H](O)C[C@H](O)/C=C/c1c(C2CC2)nc2ccccc2c1-c1ccc(F)cc1` [PITAVASTATIN CALCIUM], for which the IC50 came out at 10.6 µM. Compared with the last molecule, the IC50 is about 3.7-fold lower.
Turning to `COc1cccc(Sc2c(F)cc3c(Sc4cccc(OC)c4)c(/C=C/[C@@H]4C[C@@H](O)CC(=O)O4)cnc3c2Sc2cccc(OC)c2)c1`, the midpoint of inhibition, the IC50, lay at 74.6 µM. Compared with the last molecule, the IC50 is about 7-fold higher.
`O=C1C[C@H](O)C[C@@H](/C=C/c2cnc3ccccc3c2Sc2ccc(F)cc2)O1`: the concentration for half-maximal inhibition (IC50) is 18.6 µM.
In the case of `CC(C)c1ccc(Sc2cc3c(Sc4ccc(C(C)C)cc4)c(/C=C/[C@@H]4C[C@@H](O)CC(=O)O4)cnc3c(Sc3ccc(C(C)C)cc3)c2Sc2ccc(C(C)C)cc2)cc1`, the IC50 was determined as 4.35 µM. This IC50 is about 4.3-fold lower than that of the molecule before.
Then `CC(C)c1ccc(Sc2c(/C=C/[C@@H]3C[C@@H](O)CC(=O)O3)cnc3ccccc23)cc1`, with 12.7 µM.
